Data from patent US20250154198A1, “PEPTIDE INHIBITORS OF INTERLEUKIN-23 RECEPTOR” (Zealand Pharma A/S, priority 2021, published 2025).
Read-outs that look alike come from different tables or passages of the source. *1 amine or outer side, *2 acyl side, *3 side chain or, on linkers, in order; H or OH if unused. Where a SMILES comes first, the peptide text is derived from it. Bridges are numbered along the chain shown (N, C = ends). [ ]: non-standard residue; d: D form. Bip = N[C@@H](Cc1ccc(-c2ccccc2)cc1)C(=O)O; 2Nal = N[C@@H](Cc1ccc2ccccc2c1)C(=O)O; AEF = NCCOc1ccc(C[C@H](N)C(=O)O)cc1; αMeL = CC(C)C[C@](C)(N)C(=O)O; CH2COCH2 = O=C(C[*:1])C[*:2]

Tests used:
human IL-23R = biological target: T1, human IL-23R (Homo sapiens, UniProt Q5VWK5); experiment: Binding assay (NanoBRET displacement of fluorophore-labelled reference compound) for estimating binding affinity to human IL-23R; details: for IL-23R inhibitory activity (in words): with reference to Ki and IC50 data of the Examples
T1 construct: UniProtKB—Q5VWK5, amino acids 22-629; secretion signal of the plasmid (Promega N1371); expressed in transfected cells
T1 sequence (Q5VWK5 22-629): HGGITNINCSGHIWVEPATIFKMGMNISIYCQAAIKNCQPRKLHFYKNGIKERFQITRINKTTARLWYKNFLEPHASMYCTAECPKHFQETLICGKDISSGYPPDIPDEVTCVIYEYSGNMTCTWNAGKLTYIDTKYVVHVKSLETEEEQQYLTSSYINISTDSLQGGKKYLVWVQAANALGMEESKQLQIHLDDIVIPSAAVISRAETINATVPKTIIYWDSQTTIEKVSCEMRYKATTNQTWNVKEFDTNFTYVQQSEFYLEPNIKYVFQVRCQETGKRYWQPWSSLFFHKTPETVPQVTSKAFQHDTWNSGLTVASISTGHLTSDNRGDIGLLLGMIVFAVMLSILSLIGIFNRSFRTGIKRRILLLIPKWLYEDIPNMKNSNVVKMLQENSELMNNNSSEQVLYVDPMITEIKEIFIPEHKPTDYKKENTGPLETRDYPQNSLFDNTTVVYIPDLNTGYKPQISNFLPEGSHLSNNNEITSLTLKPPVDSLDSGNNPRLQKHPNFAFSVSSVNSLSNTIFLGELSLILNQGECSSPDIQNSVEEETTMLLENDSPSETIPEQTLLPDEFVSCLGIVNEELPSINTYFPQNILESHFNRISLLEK

[1] = biological target: IL-23 mediated phospho-STAT3 formation in DB cells (Homo sapiens, UniProt Q5VWK5); experiment: Functional inhibition of IL-23 mediated STAT3 signalling (phospho-STAT3 Tyr705 MSD) in DB cells; assay type: cell-based
Description: Functional Inhibition of IL-23 Mediated STAT3 Signalling by Compounds
Upon binding of IL-23, the IL-23R forms a heterodimer signalling complex together with IL-12R β1, which through the JAK2/STAT3 pathway promotes phosphorylation of STAT3 to form phospho-STAT3.
The assay was used to quantify the functional antagonism of a compound and to rank order the inhibitor compounds according to their potency. For compounds tested in this assay, the response was normalized relative to control values to calculate the IC50 and maximal inhibitory response from a concentration response curve of the compound in presence of a fixed concentration of human IL-23.
The assay procedure was as follows. […] Following preincubation of the DB cells with inhibitor for 15 min in a cell incubator (37° C., 5% CO2), 20 μL of the prepared 3× the EC80 of hIL-23 solution was added to each well and incubated for 90 min in a cell incubator (37° C., 5% CO2). For some wells buffer only or IL-23 only corresponding to the EC80 was added to obtain readouts needed for normalization. To terminate the assay, the plate was spun at 1000 G for 5 min to pellet cells, the supernatant removed using an 8-channel manual pipette, and then added 50 μL/well Complete Lysis Buffer from the MSD STAT3 kit (Cat #K150SVD, Mesoscale) to the cell pellet. To completely lyse cells to release phospho-STAT3 for detection, the plate was shaken for 10 min at room temperature (500 rpm) sealed with aluminum foil and placed at −80° C. for a minimum of 15 min. Detection of the phospho-STAT3 level in the cell lysate from the individual wells was determined using the MSD STAT3 kit (Cat #K150SVD, Mesoscale) and read on a Meso QuickPlex SQ 120 plate reader (Mesoscale).
For data analysis raw data counts from the Meso QuickPlex SQ 120 plate reader were normalized relative to the response by the EC80 of hIL-23 alone (no compound added) and the buffer level. Compound potency (IC50) and maximal inhibitory response (% inhibition) were estimated by computer-aided curve fitting using a 4-parameter logistic (4PL) non-linear model.

[2] = Table 3-1, read-out: Ki hIL-23R
[3] = Table 3-1, DB cells, read-out: IC50 (pSTAT3)

SMILES	Ki (human IL-23R; [2]) [µM]	IC50 [1, 3] [µM]	Ki (human IL-23R) [µM]	IC50 [1] [µM]	other results
CC(=O)N[C@@H](CC(=O)O)C(=O)N[C@H]1CSCC(=O)CSC[C@@H](C(=O)N[C@@H](CCCNC(=N)N)C(N)=O)NC(=O)[C@](C)(CC(C)C)NC(=O)[C@H](Cc2c[nH]c3ccccc23)NC(=O)[C@H](Cc2ccc3ccccc3c2)NC(=O)[C@@H]2CSCC(=O)CSC[C@H](NC(=O)[C@H](CCC(N)=O)NC1=O)C(=O)N[C@@H](Cc1c[nH]c3ccccc13)C(=O)N[C@@H](CCC(N)=O)C(=O)N2 [Compound 62, [Ac]-DC(1a)QC(2a)WQC(2a)[2-Nal]W[2-Me-Leu]C(1a)R-[NH2]] (Ac-DCQCWQC[2Nal]W[αMeL]CR-NH2; linker 2-11, 4-7 via CH2COCH2)	–	–	> 1	> 1	–
CC(=O)N[C@@H](CC(=O)O)C(=O)N[C@H]1CSCC(=O)CSC[C@@H](C(=O)N[C@@H](CCCNC(=N)N)C(N)=O)NC(=O)[C@](C)(CC(C)C)NC(=O)[C@H](Cc2c[nH]c3ccccc23)NC(=O)[C@H](Cc2ccc(O)cc2)NC(=O)[C@@H]2CSCC(=O)CSC[C@H](NC(=O)[C@H](CCC(N)=O)NC1=O)C(=O)N[C@@H](Cc1c[nH]c3ccccc13)C(=O)N[C@@H](CCC(N)=O)C(=O)N2 [Compound 63, [Ac]-DC(1a)QC(2a)WQC(2a)YW[2-Me-Leu]C(1a)R-[NH2]] (Ac-DCQCWQCYW[αMeL]CR-NH2; linker 2-11, 4-7 via CH2COCH2)	–	–	> 1	> 1	–
CC(C)C[C@@H]1NC(=O)[C@H](Cc2c[nH]c3ccccc23)NC(=O)[C@H](Cc2c[nH]c3ccccc23)NC(=O)[C@@H]2CSSC[C@H](NC(=O)[C@H](CO)NC(=O)[C@@H](NC(=O)[C@@H](N)CC(=O)O)CSSC[C@@H](C(=O)N[C@@H](CCCNC(=N)N)C(N)=O)NC1=O)C(=O)N[C@@H](Cc1c[nH]c3ccccc13)C(=O)N[C@@H](CCC(N)=O)C(=O)N2 [Ref 1, H-DC(1b)SC(2b)WQC(2b)WWLC(1b)R-[NH2], reference compound]	–	–	> 1	> 1	IL-23R inhibitory activity (in words) (human IL-23R): inactive; IC50 ([1]; read-out: IC50 (pSTAT3), Table 3-1, DB cells): > 1 µM
CC(C)C[C@@H]1NC(=O)[C@H](Cc2c[nH]c3ccccc23)NC(=O)[C@H](Cc2c[nH]c3ccccc23)NC(=O)[C@H](Cc2ccc(O)cc2)NC(=O)[C@H](CCC(N)=O)NC(=O)[C@H](Cc2c[nH]c3ccccc23)NC(=O)[C@H]([C@@H](C)O)NC(=O)[C@H](CO)NC(=O)[C@@H](NC(=O)[C@@H](N)CC(=O)O)CCC(=O)NCCCC[C@@H](C(=O)N[C@@H](CCCNC(=N)N)C(N)=O)NC1=O [Ref 3, reference compound] (HELM PEPTIDE1{D.E.S.T.W.Q.Y.W.W.L.K.R.[am]}$PEPTIDE1,PEPTIDE1,2:R3-11:R3$$$V2.0)	> 1	> 1	–	–	–
CSCC[C@@H]1NC(=O)[C@H](CO)NC(=O)[C@@H](NC(=O)[C@H](CC(=O)O)NC(C)=O)CCC(=O)NCCCC[C@@H](C(=O)N[C@@H](CCCNC(=N)N)C(N)=O)NC(=O)[C@H](CC(C)C)NC(=O)[C@H](Cc2c[nH]c3ccccc23)NC(=O)[C@H](Cc2c[nH]c3ccccc23)NC(=O)[C@H](CCSC)NC(=O)[C@H](CCC(N)=O)NC(=O)[C@H](Cc2c[nH]c3ccccc23)NC1=O [Ref 4, reference compound] (HELM PEPTIDE1{[ac].D.E.S.M.W.Q.M.W.W.L.K.R.[am]}$PEPTIDE1,PEPTIDE1,3:R3-12:R3$$$V2.0)	> 1	> 1	–	–	–
CC(=O)N[C@@H](CC(=O)O)C(=O)N[C@H]1CCC(=O)NCCCC[C@@H](C(=O)N[C@@H](CCCNC(=N)N)C(N)=O)NC(=O)[C@H](Cc2c[nH]c3ccccc23)NC(=O)[C@H](Cc2c[nH]c3ccccc23)NC(=O)[C@@H]2CSCC(=O)CSC[C@H](NC(=O)[C@H](CO)NC1=O)C(=O)N[C@@H](Cc1c[nH]c3ccccc13)C(=O)N[C@@H](CCC(N)=O)C(=O)N2 [Ref 7, [Ac]-DE(1c)SC(2a)WQC(2a)WWK(1c)R-[NH2], reference compound] (HELM PEPTIDE1{[ac].D.E.S.C.W.Q.C.W.W.K.R.[am]}|CHEM1{[O=C(C[*:1])C[*:2]]}$PEPTIDE1,PEPTIDE1,3:R3-11:R3|PEPTIDE1,CHEM1,5:R3-1:R1|PEPTIDE1,CHEM1,8:R3-1:R2$$$V2.0)	> 1	> 1	–	–	IL-23R inhibitory activity (in words) (human IL-23R): inactive

More lines, main results first:

Ki (human IL-23R; [2]) [µM]	IC50 [1, 3] [µM]	SMILES	Ki (human IL-23R) [µM]	IC50 [1] [µM]	other results
> 1	> 1	CC(=O)N[C@H]1CCCCNC(=O)CC[C@@H](C(=O)N[C@@H](CCCNC(=N)N)C(N)=O)NC(=O)[C@H](CC(C)C)NC(=O)[C@H](Cc2ccc3ccccc3c2)NC(=O)[C@H](Cc2c[nH]c3ccccc23)NC(=O)[C@@H]2CSCC(=O)CSC[C@H](NC(=O)[C@H](CO)NC1=O)C(=O)N[C@@H](Cc1ccc(-c3ccccc3)cc1)C(=O)N[C@@H](CCC(N)=O)C(=O)N2 [Compound 26, [Ac]-K(1c)SC(2a)[Bip]QC(2a)W[2-Nal]LE(1c)R-[NH2]] (Ac-KSC[Bip]QCW[2Nal]LER-NH2; lactam 1-10; linker 3-6 via CH2COCH2)	–	–	–
0.00068	–	CC(=O)N[C@H]1CCCCNC(=O)CC[C@@H](C(=O)N[C@@H](CCCNC(=N)N)C(N)=O)NC(=O)[C@H](CC(C)C)NC(=O)[C@H](Cc2ccc3ccccc3c2)NC(=O)[C@H](Cc2ccc(OCCN)cc2)NC(=O)[C@@H]2CSCC(=O)CSC[C@H](NC(=O)[C@H](CO)NC1=O)C(=O)N[C@@H](Cc1c[nH]c3ccccc13)C(=O)N[C@@H](CCC(N)=O)C(=O)N2 [Compound 29, [Ac]-K(1c)SC(2a)WQC(2a)[Y(2-aminoethoxy)][2-Nal]LE(1c)R-[NH2]] (Ac-KSCWQC[AEF][2Nal]LER-NH2; lactam 1-10; linker 3-6 via CH2COCH2)	–	–	Ki (human IL-23R; Table 2-9b, read-out: Ki IL-23R): 0.00064 µM; IC50 ([1]; Table 2-9b, DB cells, read-out: IC50 (pSTAT3)): 0.0197 µM
> 1	> 1	CC(C)C[C@@H]1NC(=O)[C@H](Cc2ccc3ccccc3c2)NC(=O)[C@H](Cc2c[nH]c3ccccc23)NC(=O)[C@@H]2CSCC(=O)CSC[C@H](NC(=O)[C@H](CO)NC(=O)CCNC(=O)CC[C@@H](C(=O)N[C@@H](CCCNC(=N)N)C(N)=O)NC1=O)C(=O)N[C@@H](Cc1c[nH]c3ccccc13)C(=O)N[C@@H](CCC(N)=O)C(=O)N2 [Compound 36, [bAla](1c)*SC(2a)WQC(2a)W[2-Nal]LE(1c)R-[NH2]] (HELM PEPTIDE1{[bAla].S.C.W.Q.C.W.[O=C([C@H](Cc1ccc2ccccc2c1)N[*:1])[*:2]].L.E.R.[am]}|CHEM1{[O=C(C[*:1])C[*:2]]}$PEPTIDE1,CHEM1,3:R3-1:R1|PEPTIDE1,CHEM1,6:R3-1:R2|PEPTIDE1,PEPTIDE1,1:R1-10:R3$$$V2.0)	–	–	–
> 1	> 1	CC(C)C[C@@H]1NC(=O)[C@H](Cc2c[nH]c3ccccc23)NC(=O)[C@H](Cc2c[nH]c3ccccc23)NC(=O)[C@H](CO)NC(=O)[C@H](CCC(N)=O)NC(=O)[C@H](Cc2c[nH]c3ccccc23)NC(=O)[C@H](CO)NC(=O)[C@H](CO)NC(=O)[C@@H](NC(=O)[C@@H](N)CC(=O)O)CCC(=O)NCCCC[C@@H](C(=O)N[C@@H](CCCNC(=N)N)C(N)=O)NC1=O [Ref 2, reference compound] (HELM PEPTIDE1{D.E.S.S.W.Q.S.W.W.L.K.R.[am]}$PEPTIDE1,PEPTIDE1,2:R3-11:R3$$$V2.0)	–	–	–
